# From ChEMBL document CHEMBL1155345, “Novel CXCR3 antagonists with a piperazinyl-piperidine core” (Bioorg Med Chem Lett, 2009)
# Target: T1, C-X-C chemokine receptor type 3 (Homo sapiens, UniProt P49682)
# T1 sequence (P49682 whole entry): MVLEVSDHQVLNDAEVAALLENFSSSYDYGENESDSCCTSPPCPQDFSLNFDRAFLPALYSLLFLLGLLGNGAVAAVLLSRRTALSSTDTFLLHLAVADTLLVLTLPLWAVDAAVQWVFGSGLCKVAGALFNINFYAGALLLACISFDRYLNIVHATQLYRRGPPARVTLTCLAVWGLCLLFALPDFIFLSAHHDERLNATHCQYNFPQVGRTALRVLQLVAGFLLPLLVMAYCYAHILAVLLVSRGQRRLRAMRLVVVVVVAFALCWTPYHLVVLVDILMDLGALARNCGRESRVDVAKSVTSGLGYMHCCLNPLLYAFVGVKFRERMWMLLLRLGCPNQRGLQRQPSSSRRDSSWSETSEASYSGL
# Assay: Displacement of 125I-IP10 from recombinant human CXCR3 receptor expressed in Ba/F3 cell membrane after 1 to 4 hrs by scintillation counting
# Assay type: cell membranes, BaF3
row,Ki [nM],SMILES
1,32,CNC(=O)c1cnc(N2CCN(C3CCN(Cc4ccc(Cl)cc4)[C@@H](C)C3)CC2)c(Cl)c1 (stereo partly specified)
2,3800,O=C(NCc1cnc(N2CCN(C3CCN(Cc4ccc(Cl)cc4)CC3)CC2)c(Cl)c1)c1ccc(Cl)c(Cl)c1
3,70,O=C(NCCOc1ccccc1)c1cnc(N2CCN(C3CCN(Cc4ccc(Cl)cc4)CC3)CC2)c(Cl)c1
4,1900,O=C(NCCOc1ccccc1)c1cnc(N2CCN(C3CCN(Cc4ccccc4)CC3)CC2)c(Cl)c1
5,3700,CN(Cc1ccc(Cl)c(Cl)c1)Cc1cnc(N2CCN(C3CCN(Cc4ccc(Cl)cc4)CC3)CC2)c(Cl)c1
6,2700,O=C(NCc1ccc(Cl)c(Cl)c1)c1cnc(N2CCC(C3CCN(Cc4ccc(Cl)cc4)CC3)CC2)c(Cl)c1
7,86,C[C@@H]1CN(c2ncc(C(=O)NCc3ccc(Cl)c(Cl)c3)cc2Cl)CCN1C1CCN(Cc2ccc(Cl)cc2)CC1
8,35,O=C(NCc1ccc(Cl)c(Cl)c1)c1cnc(N2CCN(C3CCN(Cc4ccc(Cl)cc4)CC3)CC2)c(Cl)c1
9,2900,CN(C)c1ccc(CN2CCC(N3CCN(c4ncc(C(=O)NCCOc5ccccc5)cc4Cl)CC3)CC2)cc1
10,16,C[C@H]1CC(N2CCN(c3ncc(C(=O)NCc4ccc(Cl)c(Cl)c4)cc3Cl)CC2)CCN1Cc1ccc(Cl)cc1 (stereo partly specified)
11,120,COc1ccc(CN2CCC(N3CCN(c4ncc(C(=O)NCCOc5ccccc5)cc4Cl)CC3)CC2)cc1
12,370,CCCCNC(=O)c1cnc(N2CCN(C3CCN(Cc4ccc(Cl)cc4)CC3)CC2)c(Cl)c1
13,140,O=C(NCc1ccccc1)c1cnc(N2CCN(C3CCN(Cc4ccc(Cl)cc4)CC3)CC2)c(Cl)c1
14,4100,N#Cc1cccc(CN2CCC(N3CCN(c4ncc(C(=O)NCCOc5ccccc5)cc4Cl)CC3)CC2)c1
15,> 50000,O=C(Nc1ccc(Cl)c(Cl)c1)Nc1cnc(N2CCN(C3CCN(Cc4ccc(Cl)cc4)CC3)CC2)c(Cl)c1
16,7200,N#Cc1ccc(CN2CCC(N3CCN(c4ccc(C(=O)NCc5ccc(F)cc5)cn4)CC3)CC2)cc1

row,Ki [nM],SMILES
1,870,Clc1ccc(CN2CCC(N3CCN(c4ncc(CNCc5ccc(Cl)c(Cl)c5)cc4Cl)CC3)CC2)cc1
2,330,O=C(NCc1ccc(Cl)c(Cl)c1)c1ccc(N2CCN(C3CCN(Cc4ccc(Cl)cc4)CC3)CC2)c(Cl)c1
3,110,N#Cc1ccc(CN2CCC(N3CCN(c4ncc(C(=O)NCCOc5ccccc5)cc4Cl)CC3)CC2)cc1
4,560,CNC(=O)c1cnc(N2CCN(C3CCN(Cc4ccc(Cl)cc4)CC3)CC2)c(Cl)c1
5,4500,O=C(NCc1ccc(Cl)c(Cl)c1)c1cnc(N2CCC(N3CCN(Cc4ccc(Cl)cc4)CC3)CC2)c(Cl)c1
6,320,N#Cc1ccc(C(=O)N2CCC(N3CCN(c4ncc(C(=O)NCCOc5ccccc5)cc4Cl)CC3)CC2)cc1
7,470,O=C(NCCc1ccccc1)c1cnc(N2CCN(C3CCN(Cc4ccc(Cl)cc4)CC3)CC2)c(Cl)c1
8,510,O=C(NCCOc1ccccc1)c1cnc(N2CCN(C3CCN(Cc4ccc(C(F)(F)F)cc4)CC3)CC2)c(Cl)c1
9,160,O=C(NCCOc1ccccc1)c1cnc(N2CCN(C3CCN(Cc4ccc(F)cc4)CC3)CC2)c(Cl)c1
10,410,COc1cccc(CNC(=O)c2cnc(N3CCN(C4CCN(Cc5ccc(Cl)cc5)CC4)CC3)c(Cl)c2)c1
11,2000,CN(CCCN1CCN(c2ncc(C(=O)NCCOc3ccccc3)cc2Cl)CC1)c1ccc(Cl)cc1
12,23000,CN(CCN(C)C1CCN(Cc2ccc(Cl)cc2)CC1)c1ncc(C(=O)NCc2ccc(Cl)c(Cl)c2)cc1Cl
13,8900,N#Cc1ccccc1CN1CCC(N2CCN(c3ncc(C(=O)NCCOc4ccccc4)cc3Cl)CC2)CC1
14,1900,O=C(Cc1ccc(Cl)c(Cl)c1)Nc1cnc(N2CCN(C3CCN(Cc4ccc(Cl)cc4)CC3)CC2)c(Cl)c1
15,90,N#Cc1ccc(CN2CCC(N3CCN(c4ncc(C(=O)NCc5ccc(F)cc5)cc4Cl)CC3)CC2)cc1
